Like-named read-outs stand apart in the source and are kept apart here.
Assays:
[1] = tested on: COX-2; conditions: cited from earlier work
[2] = tested on: COX-1; conditions: read-out: IC50 Whole cell COX-1; cited from earlier work
[3] = tested on: COX-2; conditions: read-out: COX-2 IC50; cited from earlier work
[4] = molecular target: T1, ovine COX-1 (Ovis aries, UniProt P05979); experiment: biochemical; conditions: ovine COX-1/COX-2 assay kit, means of two determinations
T1 construct: purchased Cayman chemical, MI, USA
T1 sequence (P05979 25-600): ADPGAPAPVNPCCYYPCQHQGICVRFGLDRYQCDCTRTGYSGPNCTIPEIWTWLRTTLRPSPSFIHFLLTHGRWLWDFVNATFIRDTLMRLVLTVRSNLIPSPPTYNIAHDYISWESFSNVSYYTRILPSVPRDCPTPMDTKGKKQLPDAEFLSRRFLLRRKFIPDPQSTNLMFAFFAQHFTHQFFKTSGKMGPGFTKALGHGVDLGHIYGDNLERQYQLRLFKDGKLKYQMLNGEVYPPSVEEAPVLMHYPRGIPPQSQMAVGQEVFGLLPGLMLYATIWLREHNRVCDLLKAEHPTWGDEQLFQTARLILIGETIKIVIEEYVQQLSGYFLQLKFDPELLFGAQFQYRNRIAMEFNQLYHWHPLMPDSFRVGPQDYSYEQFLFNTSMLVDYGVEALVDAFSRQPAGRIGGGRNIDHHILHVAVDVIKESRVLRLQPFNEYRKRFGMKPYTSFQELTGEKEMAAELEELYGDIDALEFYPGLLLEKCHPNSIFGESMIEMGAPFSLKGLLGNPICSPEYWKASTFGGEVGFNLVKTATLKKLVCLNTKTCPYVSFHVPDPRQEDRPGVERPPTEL
Source text: (§1) In-vitro cyclooxygenase (COX) inhibition assay
(§2) Enzyme chemiluminescent kit (Cayman chemical, MI, USA) was used to evaluate inhibition activities of synthesized compounds based on our previous reported procedure ([34]). The Cayman chemical chemiluminescent COX (ovine) inhibitor screening assay employs the heme-catalyzed hydroperoxidase activity of ovine cyclooxygenases to produce luminescence in the presence of a cyclic naphthalene hydrazide and the substrate arachidonic acid.

[5] = molecular target: T2, ovine COX-2 (Ovis aries, UniProt P79208); experiment: biochemical; conditions: for IC50: ovine COX-1/COX-2 assay kit, means of two determinations; for Selectivity index (SI): COX-1 IC50/COX-2 IC50
T2 construct: purchased Cayman chemical, MI, USA
T2 sequence (P79208 17-603): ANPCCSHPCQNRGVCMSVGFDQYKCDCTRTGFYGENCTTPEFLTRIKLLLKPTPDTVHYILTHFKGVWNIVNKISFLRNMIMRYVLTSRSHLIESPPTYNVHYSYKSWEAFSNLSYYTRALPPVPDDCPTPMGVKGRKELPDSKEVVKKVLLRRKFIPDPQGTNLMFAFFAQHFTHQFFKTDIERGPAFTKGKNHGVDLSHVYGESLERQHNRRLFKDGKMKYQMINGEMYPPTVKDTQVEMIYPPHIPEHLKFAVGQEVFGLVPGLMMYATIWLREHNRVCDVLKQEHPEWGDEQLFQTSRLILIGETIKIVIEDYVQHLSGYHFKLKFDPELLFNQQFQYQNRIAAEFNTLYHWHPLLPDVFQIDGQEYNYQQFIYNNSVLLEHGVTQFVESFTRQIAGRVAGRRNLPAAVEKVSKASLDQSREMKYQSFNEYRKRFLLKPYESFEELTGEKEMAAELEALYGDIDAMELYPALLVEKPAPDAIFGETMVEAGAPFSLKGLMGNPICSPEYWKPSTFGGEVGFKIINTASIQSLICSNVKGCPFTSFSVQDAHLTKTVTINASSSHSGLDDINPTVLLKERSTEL
Source text: as §1, §2

IC50 [4] | IC50 [5] | melting point | Selectivity index (SI) [5] | Compound | other results
48.5 µM | 0.12 µM | 132 to 135 °C | 404.1 | CCN(CC)Cc1c(-c2ccc(S(C)(=O)=O)cc2)nc2sccn12 [Compound 6b, N-Ethyl-N-((6-(4-(methylsulfonyl)phenyl)imidazo[2,1-b]thiazol-5-yl)methyl)ethanamine] | 
 |  | 165 to 167 °C |  | CCCN(CCC)Cc1c(-c2ccc(S(C)(=O)=O)cc2)nc2sccn12 [Compound 6c, N-((6-(4-(Methylsulfonyl)phenyl)imidazo[2,1-b]thiazol-5-yl)methyl)-N-propylpropan-1-amine] | 
> 100 µM | 0.11 µM | 168.8 to 170 °C |  | CS(=O)(=O)c1ccc(-c2nc3sccn3c2CN(CCO)CCO)cc1 [Compound 6g, 2,2′-(((6-(4-(Methylsulfonyl)phenyl)imidazo[2,1-b]thiazol-5-yl)methyl)azanediyl)bis(ethan-1-ol)] | 

Continued, compound first:

Compound | IC50 [4] | IC50 [5] | melting point | Selectivity index (SI) [5] | other results
CS(=O)(=O)c1ccc(-c2nc3ccccn3c2CN2CCOCC2)cc1 [2-(4-(methylsulfonyl)phenyl)-3-(morpholinomethyl)H-imidazo[1,2-a]pyridine] |  |  |  |  | SI ([1]; COX-2 selectivity index): 217.1; IC50 ([1]; read-out: IC50 (COX-2 inhibition)): 0.07 µM
Cc1cnc2c(-c3ccc(F)cc3)c(-c3ccc(S(C)(=O)=O)cc3)nn2c1C [3-(4-fluorophenyl)-6,7-dimethyl-2-(4-(methylsulfonyl)phenyl)pyrazolo[1,5-a]pyrimidine] |  |  |  |  | IC50 [2]: > 10 µM
COc1ccc2[nH]c(-c3ccc(S(C)(=O)=O)cc3)cc2c1 [5-methoxy-2-(4-(methylsulfonyl)phenyl)-1H-indole] |  |  |  |  | IC50 [3]: 0.08 µM
CN(C)Cc1c(-c2ccc(S(C)(=O)=O)cc2)nc2sccn12 [Compound 6a, N,N-Dimethyl-1-(6-(4-(methylsulfonyl)phenyl)imidazo[2,1-b]thiazol-5-yl)methanamine] | > 100 µM | 0.08 µM | 123 to 124 °C |  | 
CS(=O)(=O)c1ccc(-c2nc3sccn3c2CN2CCCC2)cc1 [Compound 6d, 6-(4-(Methylsulfonyl)phenyl)-5-(pyrrolidin-1-ylmethyl)imidazo[2,1-b]thiazole] | 12.1 µM | 0.09 µM | 144 to 146 °C | 134.4 | 
CS(=O)(=O)c1ccc(-c2nc3sccn3c2CN2CCCCC2)cc1 [Compound 6e, 6-(4-(Methylsulfonyl)phenyl)-5-(piperidin-1-ylmethyl)imidazo[2,1-b]thiazole] | 50.1 µM | 0.16 µM | 142.6 to 144 °C | 313.1 | 
CS(=O)(=O)c1ccc(-c2nc3sccn3c2CN2CCOCC2)cc1 [Compound 6f, 4-((6-(4-(Methylsulfonyl)phenyl)imidazo[2,1-b]thiazol-5-yl)methyl)morpholine] | 55.1 µM | 0.1 µM | 203 to 206 °C | 551.0 | 
